{"source": "paper PMC8861431", "about": "“Tissue Pharmacokinetic Properties and Bystander Potential of Hypoxia-Activated Prodrug CP-506 by Agent-Based Modelling” (Frontiers in Pharmacology, 2022)", "assay_in_all_cases": "Anti-proliferative IC50 assay (SRB)", "assay_type_in_all_cases": "cell-based, human", "key": {"HCT-116 WT cell line": {"tested_on": "HCT-116 WT cell line", "conditions": "for IC50: Homo sapiens, 4 h exposure", "source_text": "(§1) The HCT-116 cell line was purchased from the American Type Culture Collection (Manassas, VA). A POR-overexpressing clone (POR-R) was generated by transfecting the parental cell line with a pBRP expression vector encoding an N-terminal truncated soluble version of the human POR gene ([Foehrenbacher et al., 2013a]; [Guise et al., 2020]). Ectopic expression is driven by the human cytomegalovirus (CMV) major immediate-early promoter. Downstream of POR is a human elongation factor-1 alpha (EF-1 alpha) promoter, which drives expression of mRuby and the puromycin resistance gene pac (puromycin N-acetyltransferase). A POR-null clone (PORG-ko) was generated as previously described ([Su et al., 2013]). POR-null clones were then transfected with a pEGFP-N1 plasmid encoding enhanced green fluorescent protein (EGFP) and geneticin resistance to permit identification upon co-culture ([Hong et al., 2018b]). Cell lines were maintained by weekly subculture in T-flasks containing alpha minimal essential medium (αMEM) with 5% foetal bovine serum (FBS) for a maximum of 24 passages or 90 days (whichever came first). The culture medium was further supplemented with 1 mg/ml geneticin or 2 µM puromycin for the routine maintenance of the POR-null and POR-overexpressing clones respectively. All cultures were re-established from STR-authenticated, mycoplasma negative frozen stocks.\n(§2) Cells (700–1,000 per well) were seeded with 100 µl culture medium into 96-well plates and left to attach for 2 h in a humidified 37°C incubator. Compounds were prepared in culture medium and serially diluted (1:3) in the well volume. Plates were returned to a humidified 37°C incubator for the duration of the drug exposure (4 h). Aerobic experiments were performed under standard tissue culture conditions (21% O2), and the anoxic experiments were performed in parallel in a 5% H2/Pd catalyst anaerobic chamber (Shellab Bactron, Sheldon manufacturing Inc., Cornelius, OR) using pre-equilibrated media and plasticware. All anoxia experiments were conducted using a catalyst-scrubbed anaerobic chamber, unless otherwise specified, with gas oxygen measurements of <1 ppm O2. Cells were then washed three times and left to grow for 96 h before cell density determination using a sulforhodamine B (SRB) assay ([Vichai and Kirtikara, 2006]). To this end, the cells were fixed by layering 50 µl of trichloroacetic acid (40% w/v in MilliQ water) on top of the culture media (150 µl) in each well for 1 h at 4°C. Plates were rinsed under running tap water and stained with 50 µl of SRB (0.4% w/v in MilliQ water containing 1% v/v acetic acid) for 30 min at room temperature. Plates were rapidly destained by rinsing three times in tap water containing 1% (v/v) acetic acid. The stain was solubilized by adding 100 µl of 10 mM unbuffered Tris base to each well with gentle rocking for 1 h. Plates were read on a Biotek ELx808 Absorbance Microplate Reader at 490 nm using KC4 software. The IC50 value (concentration required to reduce staining to 50% of the untreated control on the same plate) for each compound was determined by interpolation using a 4-parameter logistic regression model."}, "[1]": {"tested_on": "POR-R cell line (POR-overexpressing HCT-116)", "conditions": "for IC50: Homo sapiens, HCT-116, 4 h exposure", "source_text": "as §1, §2"}, "[2]": {"tested_on": "PORko-G cell line (POR-knockout HCT-116)", "conditions": "for IC50: Homo sapiens, HCT-116, 4 h exposure", "source_text": "as §1, §2"}, "[3]": {"conditions": "anoxic <1 ppm O2, 96 h drug-free proliferation, read-out: Anoxic IC50 (anti-proliferative)"}, "[4]": {"conditions": "normoxic 21% O2, 96 h drug-free proliferation, read-out: Aerobic IC50 (anti-proliferative)"}}, "note": "Read-outs that look alike come from different tables or passages of the source."}
{"molecule": "CCN1CCN(C(=O)c2cc(N(CCBr)CCOS(C)(=O)=O)c(S(C)(=O)=O)cc2[N+](=O)[O-])CC1", "note": "[CP-506, 2-[(2-bromoethyl)-5-[(4-ethyl-1-piperazinyl)carbonyl]-2-(methylsulfonyl)-4-nitroanilino]ethyl methanesulfonate]", "values": [{"measurement": "IC50", "setting": "HCT-116 WT cell line; [3]", "result": "12.8 ± 3.7", "unit": "µM"}, {"measurement": "IC50", "setting": "HCT-116 WT cell line; [4]", "result": "257 ± 37", "unit": "µM"}, {"measurement": "Fold lower IC50 under anoxic vs aerobic conditions", "setting": "HCT-116 WT cell line; anti-proliferative assay", "result": 20.1, "unit": "fold"}, {"measurement": "IC50", "setting": "[1]; [3]", "result": "2.5 ± 0.3", "unit": "µM"}, {"measurement": "IC50", "setting": "[1]; [4]", "result": "120 ± 13", "unit": "µM"}, {"measurement": "Fold lower IC50 under anoxic vs aerobic conditions", "setting": "[1]; anti-proliferative assay", "result": 48.6, "unit": "fold"}, {"measurement": "IC50", "setting": "[2]; PORko-G, anoxic <1 ppm O2, 96 h drug-free proliferation, read-out: Anoxic IC50 (anti-proliferative)", "result": "33.1 ± 5.6", "unit": "µM"}, {"measurement": "IC50", "setting": "[2]; PORko-G, normoxic 21% O2, 96 h drug-free proliferation, read-out: Aerobic IC50 (anti-proliferative)", "result": "240 ± 26", "unit": "µM"}, {"measurement": "Fold lower IC50 under anoxic vs aerobic conditions", "setting": "[2]; PORko-G, anti-proliferative assay", "result": 7.3, "unit": "fold"}, {"measurement": "Differential in anoxic sensitivity between PORko-G and POR-R cell lines", "setting": "[2]; anti-proliferative assay, anoxia", "result": 13, "unit": "fold"}]}
